What was measured:
LDL = assay: Inhibitory Action against Oxidative Modification of LDL (Cu2+-induced, TBA reactive substances); format: biochemical, New Zealand White rabbits; details: rabbit LDL 0.2 mg protein/ml, cupric sulfate 0.5 μM Cu2+, 37° C., 24 hours, read-out: LDL-Oxidation Inhibiting IC50
Description: Inhibitory Action against Oxidative Modification of LDL
Experiments were conducted as follows according to the method of Kita, et al. described in proceedings of the National Academy of Sciences, USA, volume 84, pages 5928 (1987).
First, LDL was separated from the blood of New Zealand White rabbits fed with a feed containing 0.5% of cholesterol for three weeks and dissolved in phosphate-buffered physiological saline (final LDL concentration: 0.2 mg protein/ml). To this was added an ethanolic solution of each test compound, then cupric sulfate was added thereto (final Cu^2+ concentration: 0.5 μM) and the mixture was incubated at 37° C. for 24 hours.
The amount of lipid peroxides in each of the incubated solutions was measured as thiobarbituric acid reacting substances (TBA reactive substances) and, from the regression line of the inhibitory rate for oxidative modification of LDL and the concentration of the compound, the 50% inhibiting concentration (IC50) was calculated. Quantitative determination of the TBA reactive substances was conducted by measuring the TBA reactive substances in the supernatant (prepared by removing protein from the incubated solution) by means of TBA method.

[1] = Cholesterol-lowering Action in cholesterol-fed mice; format: in vivo; details: male ICR mice, feed with 1% cholesterol and 0.5% sodium cholate, 0.12% test compound in feed, seven days; for (VLDL + LDL) Cholesterol Lowering Rate: total minus HDL cholesterol; for Total Cholesterol Lowering Rate: serum
Description: Cholesterol-lowering Action
Male ICR mice (body weight: 30-40 grams) were freely fed for seven days with a feed containing 1% of cholesterol and 0.5% of sodium cholate to which 0.12% of the test compound was added (no such a compound was added for the control group), then blood was collected from the mice and the total cholesterol in serum was measured by the method of Allain described in Clinical Chemistry, volume 20, page 470 (1974).
Total amount of VLDL cholesterol and LDL cholesterol was calculated by subtracting the amount of HDL cholesterol from the amount of total cholesterol. The amount of the HDL cholesterol was measured by the method of Ash and Hentschel described in Clinical Chemistry, volume 24, page 2180 (1978).
Cholesterol lowering action of the test compound was evaluated from the cholesterol lowering rate calculated from the following expressions. [formula]

IC50 (LDL) | SMILES | (VLDL + LDL) Cholesterol Lowering Rate [1] | Total Cholesterol Lowering Rate [1]
1.52 µM | COC(=O)c1c(C(=O)c2ccc(C(F)(F)F)cc2)c(O)c2cc(OC)c(OC)c(OC)c2c1-c1ccc(OC)c(OC)c1 [Example 1, 1-(3,4-Dimethoxyphenyl)-4-hydroxy-2-(methoxycarbonyl)-3-[4-(trifluoromethyl)benzoyl]-6,7,8-trimethoxynaphthalene] | 61% | 22%
1.42 µM | COC(=O)c1c(C(=O)c2ccc(Cl)cc2)c(O)c2cc(OC)c(OC)c(OC)c2c1-c1ccc(OC)c(OC)c1 [Example 2, 3-(4-Chlorobenzoyl)-1-(3,4-dimethoxyphenyl)-4-hydroxy-2-(methoxycarbonyl)-6,7,8-trimethoxynaphthalene] | 74% | 28%
